Converted amounts (≈) assume the structure as drawn.
Assay: Drug solubility in coconut oil, CAOM and related dissolving agents
Format: physicochemical

solubility of curcumin in CAOM relative to coconut oil (in CAOM versus coconut oil): 6 times
solubility at 2 days (oil or lipid, thermodynamic from solid, in coconut oil, room temperature, mean±SD n=3, read-out: solubility of curcumin in coconut oil): 2440 ± 240 µg/mL (≈ 6.62 mM)
SMILES: COc1cc(/C=C/C(=O)CC(=O)/C=C/c2ccc(O)c(OC)c2)ccc1O [curcumin]

From patent publication US20230106719A1, “DISSOLVING AGENT” (NATIONAL UNIVERSITY CORPORATION HOKKAIDO UNIVERSITY, priority 2020, published 2023)
